In one experiment the target is T1, CRF2R (Homo sapiens, UniProt Q13324).
T1 sequence (Q13324 1-411): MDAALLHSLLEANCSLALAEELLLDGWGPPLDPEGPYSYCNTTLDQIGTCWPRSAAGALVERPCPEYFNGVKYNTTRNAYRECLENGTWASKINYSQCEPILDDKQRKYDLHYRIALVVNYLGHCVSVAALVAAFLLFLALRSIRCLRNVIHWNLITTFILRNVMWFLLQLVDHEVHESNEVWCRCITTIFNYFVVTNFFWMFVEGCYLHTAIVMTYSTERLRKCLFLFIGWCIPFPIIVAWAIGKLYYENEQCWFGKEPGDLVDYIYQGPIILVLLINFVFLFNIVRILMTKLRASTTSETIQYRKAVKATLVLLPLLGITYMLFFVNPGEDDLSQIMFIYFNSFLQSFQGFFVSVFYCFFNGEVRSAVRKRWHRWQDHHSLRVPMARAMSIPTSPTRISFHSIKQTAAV
As to the kind of experiment: CRF2R agonist activity (EC50, Emax), called comparative CRF binding. Type of experiment: cell-based. The conditions noted are these: read-out: CRF2R EC50. The text has this: (§1) The pharmacological activity and selectivity of the peptides of present invention can be determined using published test procedures. See, e.g, U.S. patent application Ser. No. 09/799,978. Because CRF2R and CRF1R are homologous proteins, it is expected that a certain proportion of agonists for CRF2R will also function as agonists of CRF1R. As discussed above, activation of CRF1R induces activation of the HPA axis since increased corticosteroid production leads to skeletal muscle atrophy. In most cases in which an increase in muscle mass or function is desired, it is not desirable to activate the HPA axis.
(§2) Because it is desirable to discriminate binding between CRF2R, as compared with CRF1R, the assays described above may be conducted using a cell, or membrane from a cell, which expresses only CRF2R or the assays can be conducted with a recombinant source of CRF2R. Cells expressing both forms of CRFR may be modified using homologous recombination to inactivate or otherwise disable the CRF1R gene. Alternatively, if the source of CRFR contains more than one CRFR type, the background signal produced by the receptor which is not of interest must be subtracted from the signal obtained in the assay. […] Known antagonists of CRFRs include, but, are not limited to, antalarmin (CRF1R selective), antisauvagine-30 (CRF2R selective) and astressin (nonselective for CRF1R/CRF2R).
(§3) Cell-based assays include the steps of contacting cells which express CRF1R or CRF2R with a peptide of the present invention or control and measuring activation of the CRFR by measuring the expression or activity of components of the CRFR signal transduction pathways.
(§4) As described in the background section above, CRFRs appear to couple through several different pathways including Gαs, Gαq or Gαi, depending upon the cell type. It is thought that agonist activation of CRFR allows the receptor to signal via any of these pathways, provided that the necessary pathway components are present in the particular cell type. Thus, to assay a particular peptide of the present invention for CRFR activation, an assay can use any of the signal transduction pathways as the readout even if the relevant cell type for treatment, in vivo, couples CRFR to skeletal muscle atrophy via a different pathway. […] Assays for measuring activation of these signaling pathways are known in the art.
(§5) For example, after contact with a peptide of the present invention, lysates of the cells can be prepared and assayed for induction of cAMP. cAMP is induced in response to Gαs activation. Because Gαs is activated by receptors other than CRFR and because a test peptide may be exerting its effect through CRFRs or by another mechanism, two control comparisons are relevant for determining whether the peptide increases levels of cAMP via activation of a CRFR. One control compares the cAMP level of cells contacted with the peptide and the cAMP level of cells contacted with a control compound (i.e., the vehicle in which the peptide is dissolved).
(§6) In one example, cAMP induction is measured with the use of DNA constructs containing the cAMP responsive element linked to any of a variety of reporter genes can be introduced into cells expressing CRFRs. Such reporter genes include, but are not limited to, chloramphenicol acetyltransferase (CAT), luciferase, glucuronide synthetase, growth hormone, fluorescent proteins (e.g., Green Fluorescent Protein), or alkaline phosphatase. Following exposure of the cells to the peptide, the level of reporter gene expression can be quantitated to determine the peptide's ability to increase cAMP levels and thus determine the peptide's ability to activate the CRFR.
(§7) In addition to using cells expressing full length CRFRs, cells can be engineered which express CRFRs containing the ligand binding domain of the receptor coupled to, or physically modified to contain, reporter elements or to interact with signaling proteins.

In a further experiment the target is T2, CRF1R (Homo sapiens, UniProt P34998).
T2 sequence (P34998 24-415): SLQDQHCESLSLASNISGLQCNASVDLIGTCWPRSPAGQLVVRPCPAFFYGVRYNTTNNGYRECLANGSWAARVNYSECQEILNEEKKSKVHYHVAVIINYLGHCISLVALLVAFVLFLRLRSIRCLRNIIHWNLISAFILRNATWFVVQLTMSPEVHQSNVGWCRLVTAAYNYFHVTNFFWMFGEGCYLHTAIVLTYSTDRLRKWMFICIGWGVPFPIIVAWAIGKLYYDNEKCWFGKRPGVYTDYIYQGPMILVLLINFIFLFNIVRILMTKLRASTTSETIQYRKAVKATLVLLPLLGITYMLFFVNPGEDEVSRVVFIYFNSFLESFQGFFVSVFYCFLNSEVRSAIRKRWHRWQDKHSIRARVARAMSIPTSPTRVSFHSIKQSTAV
Briefly: CRF1R agonist activity (EC50, Emax), called comparative CRF binding. Type of experiment: cell-based. The settings on record: read-out: CRF1R EC50.
Description: as §1, §2, §3, §4, §5, §6, §7

SMILES strings stand for the structures. Peptide text beside a SMILES is read from it.

For `CC[C@H](C)[C@H](N)C(=O)N[C@H](C(=O)N[C@@H](CC(C)C)C(=O)N[C@@H](CO)C(=O)N[C@@H](CC(C)C)C(=O)N[C@@H](CC(=O)O)C(=O)N[C@H](C(=O)N1CCC[C@H]1C(=O)N[C@H](C(=O)NCC(=O)N[C@@H](CC(C)C)C(=O)N[C@@H](CC(C)C)C(=O)N[C@@H](CCC(N)=O)C(=O)N[C@H](C(=O)N[C@@H](CC(C)C)C(=O)N[C@@H](CC(C)C)C(=O)N[C@@H](CCC(=O)O)C(=O)N[C@@H](CCC(N)=O)C(=O)N[C@@H](CCC(=O)O)C(=O)N[C@@H](CCCCN)C(=O)N[C@@H](CCC(N)=O)C(=O)N[C@@H](CCCNC(=N)N)C(=O)N[C@@H](C)C(=O)N[C@@H](C)C(=O)N[C@@H](CCCNC(=N)N)C(=O)N[C@@H](CCC(=O)O)C(=O)N[C@@H](CCC(N)=O)C(=O)N[C@@H](C)C(=O)N[C@H](C(=O)N[C@H](C(=O)N[C@@H](CC(N)=O)C(=O)N[C@@H](C)C(=O)N[C@@H](CCCNC(=N)N)C(=O)N[C@H](C(=O)N[C@@H](CC(C)C)C(=O)N[C@@H](C)C(=O)N[C@@H](CCCNC(=N)N)C(=O)N[C@H](C(N)=O)C(C)C)[C@@H](C)CC)[C@@H](C)O)[C@@H](C)O)[C@@H](C)CC)[C@@H](C)CC)C(C)C)C(C)C` [compound 115] (H-IVLSLDVPIGLLQILLEQEKQRAAREQATTNARILARV-NH2; N-terminus assumed), the EC50 (as a rule, the concentration needed to bring the measured effect to its halfway point) was 13.6 nM at CRF2R and greater than 100 nM at CRF1R.

For the compound `CC[C@H](C)[C@H](N)C(=O)N[C@H](C(=O)N[C@@H](CC(C)C)C(=O)N[C@@H](CO)C(=O)N[C@@H](CC(C)C)C(=O)N[C@@H](CC(=O)O)C(=O)N[C@H](C(=O)N1CCC[C@H]1C(=O)N[C@H](C(=O)NCC(=O)N[C@@H](CC(C)C)C(=O)N[C@@H](CC(C)C)C(=O)N[C@@H](CCC(N)=O)C(=O)N[C@H](C(=O)N[C@@H](CC(C)C)C(=O)N[C@@H](CC(C)C)C(=O)N[C@@H](CCC(=O)O)C(=O)N[C@@H](CCC(N)=O)C(=O)N[C@@H](CCC(=O)O)C(=O)N[C@@H](CCCNC(=N)N)C(=O)N[C@@H](CCC(N)=O)C(=O)N[C@@H](CCC(=O)O)C(=O)N[C@@H](C)C(=O)N[C@@H](C)C(=O)N[C@@H](CCCNC(=N)N)C(=O)N[C@@H](CCC(=O)O)C(=O)N[C@@H](CCC(N)=O)C(=O)N[C@@H](C)C(=O)N[C@H](C(=O)N[C@H](C(=O)N[C@@H](CC(N)=O)C(=O)N[C@@H](C)C(=O)N[C@@H](CCCNC(=N)N)C(=O)N[C@H](C(=O)N[C@@H](CC(C)C)C(=O)N[C@@H](C)C(=O)N[C@@H](CCCNC(=N)N)C(=O)N[C@H](C(N)=O)C(C)C)[C@@H](C)CC)[C@@H](C)O)[C@@H](C)O)[C@@H](C)CC)[C@@H](C)CC)C(C)C)C(C)C` [compound 118] (H-IVLSLDVPIGLLQILLEQERQEAAREQATTNARILARV-NH2; N-terminus assumed), the figures for the concentration for a half-maximal effect (EC50) at CRF2R and on CRF1R were 14.6 nM and greater than 100 nM, respectively.

As for `CC[C@H](C)[C@H](N)C(=O)N[C@H](C(=O)N[C@@H](CC(C)C)C(=O)N[C@@H](CO)C(=O)N[C@@H](CC(C)C)C(=O)N[C@@H](CC(=O)O)C(=O)N[C@H](C(=O)N1CCC[C@H]1C(=O)N[C@H](C(=O)NCC(=O)N[C@@H](CC(C)C)C(=O)N[C@@H](CC(C)C)C(=O)N[C@@H](CCC(N)=O)C(=O)N[C@H](C(=O)N[C@@H](CC(C)C)C(=O)N[C@@H](CC(C)C)C(=O)N[C@@H](CCC(=O)O)C(=O)N[C@@H](CCC(N)=O)C(=O)N[C@@H](CCC(=O)O)C(=O)N[C@@H](CCCCN)C(=O)N[C@@H](C)C(=O)N[C@@H](CCCNC(=N)N)C(=O)N[C@@H](C)C(=O)N[C@@H](C)C(=O)N[C@@H](CCCNC(=N)N)C(=O)N[C@@H](CCC(=O)O)C(=O)N[C@@H](CCC(N)=O)C(=O)N[C@@H](C)C(=O)N[C@H](C(=O)N[C@H](C(=O)N[C@@H](CC(N)=O)C(=O)N[C@@H](C)C(=O)N[C@@H](CCCNC(=N)N)C(=O)N[C@H](C(=O)N[C@@H](CC(C)C)C(=O)N[C@@H](C)C(=O)N[C@@H](CCCNC(=N)N)C(=O)N[C@H](C(N)=O)C(C)C)[C@@H](C)CC)[C@@H](C)O)[C@@H](C)O)[C@@H](C)CC)[C@@H](C)CC)C(C)C)C(C)C` [compound 121] (H-IVLSLDVPIGLLQILLEQEKARAAREQATTNARILARV-NH2), the concentration giving a half-maximal response (EC50) at CRF2R is 5.67 nM; on CRF1R, greater than 100 nM.

`CC[C@H](C)[C@H](N)C(=O)N[C@H](C(=O)N[C@@H](CC(C)C)C(=O)N[C@@H](CO)C(=O)N[C@@H](CC(C)C)C(=O)N[C@@H](CC(=O)O)C(=O)N[C@H](C(=O)N1CCC[C@H]1C(=O)N[C@H](C(=O)NCC(=O)N[C@@H](CC(C)C)C(=O)N[C@@H](CC(C)C)C(=O)N[C@@H](CCC(N)=O)C(=O)N[C@H](C(=O)N[C@@H](CC(C)C)C(=O)N[C@@H](CC(C)C)C(=O)N[C@@H](CCC(=O)O)C(=O)N[C@@H](CCC(N)=O)C(=O)N[C@@H](C)C(=O)N[C@@H](CCCNC(=N)N)C(=O)N[C@@H](C)C(=O)N[C@@H](CCC(=O)O)C(=O)N[C@@H](C)C(=O)N[C@@H](C)C(=O)N[C@@H](CCCNC(=N)N)C(=O)N[C@@H](CCC(=O)O)C(=O)N[C@@H](CCC(N)=O)C(=O)N[C@@H](C)C(=O)N[C@H](C(=O)N[C@H](C(=O)N[C@@H](CC(N)=O)C(=O)N[C@@H](C)C(=O)N[C@@H](CCCNC(=N)N)C(=O)N[C@H](C(=O)N[C@@H](CC(C)C)C(=O)N[C@@H](C)C(=O)N[C@@H](CCCNC(=N)N)C(=O)N[C@H](C(N)=O)C(C)C)[C@@H](C)CC)[C@@H](C)O)[C@@H](C)O)[C@@H](C)CC)[C@@H](C)CC)C(C)C)C(C)C` [compound 122] (H-IVLSLDVPIGLLQILLEQARAEAAREQATTNARILARV-NH2; N-terminus assumed): the EC50 at CRF2R was 3.31 nM; on CRF1R, no less than 1000 nM.

(Values after patent US7192924B2, “Corticotropin releasing factor 2 receptor agonists” (priority 2002, dated 2007).)
